Patent US6892140B1, “Immunogenic cancer peptides and uses thereof” (Enteron, Inc., priority 2000, dated 2005)
Ends that are not written are not given here.

These substances were tested on antibodies in sera from prostate cancer patients (assay: Prostate cancer serum test of cell surface protein peptides (Table 3)). Conditions: reactivity of peptide with antibodies in sera from prostate cancer patients.
Type: binding, human
Design: key: +: positive or negative reactivity between peptides representing modified peptide regions of cancer cell surface protein molecules with antibodies in sera from prostate cancer patients; −: positive or negative reactivity between peptides representing modified peptide regions of cancer cell surface protein molecules with antibodies in sera from prostate cancer patients
From the text: Table 3 third column illustrates the positive or negative reactivity between peptides representing modified peptide regions of cancer cell surface protein molecules with antibodies in sera from prostate cancer patients. The presence or absence in prostate cancer cells of the 41 tested molecules is shown as + or − in column four.
Sixth, employing the immunoassays disclosed herein, each biotinylated peptide is screened as an antigen against sera or other relevant biological fluids containing antibodies taken from one of the following groups: cancer patients, patients with benign lesions or inflammatory conditions, and healthy subjects. Peptides can also be screened using tumor-infiltrating lymphocytes or peripheral blood-born lymphocytes from cancer patients. Candidate peptides we consider cancer-specific or cancer-associated depend on whether they fit the following definitions.
“heNct: Tested peptide of cell surface protein erbB-3 (HENCT; also: biotin label, end not given here)” was tested, and the “Prostate Cancer Serum Test Result” value was “−”.
For “hkNqt: Tested peptide of cell surface protein ICAM 1 (HKNQT; also: biotin label, end not given here)”, the “Prostate Cancer Serum Test Result” value was “−”.
With “kNvtNrs: Tested peptide of cell surface protein integrin beta I (KNVTNRS; also: biotin label at one end)” the “Prostate Cancer Serum Test Result” value was “−”.
With “kaNts: Tested peptide of cell surface protein integrin alpha 5 (KANTS; also: biotin label at one end)” the “Prostate Cancer Serum Test Result” value was “−”.
“kaNtt: Tested peptide of cell surface protein integrin alpha (v) (KANTT; also: biotin label at one end)” was tested, and the “Prostate Cancer Serum Test Result” value was “−”.
For “kdNrt: Tested peptide of cell surface protein pdgfr beta (KDNRT; also: biotin label at one end)”, the “Prostate Cancer Serum Test Result” value was “−”.
“keNdt: Tested peptide of cell surface protein protein-tyrosine phosphatase kappa (KENDT; also: biotin label at one end)” was tested, and the “Prostate Cancer Serum Test Result” value was “−”.
In the case of “kiNat: Tested peptide of cell surface protein desmoglein 2 (KINAT; also: biotin label at one end)”, the “Prostate Cancer Serum Test Result” value is reported as “−”.
“knNht: Tested peptide of cell surface protein CD63 (KNNHT; also: biotin label at one end)” was tested, and the “Prostate Cancer Serum Test Result” value was “−”.
In the case of “leNht: Tested peptide of cell surface protein integrin alpha 3 (LENHT; also: biotin label at one end)”, the “Prostate Cancer Serum Test Result” value is reported as “−”.
“mNtt: Tested peptide of cell surface protein insulin-like gf receptor” was tested, and the “Prostate Cancer Serum Test Result” value was “−”.
For “meNkt: Tested peptide of cell surface protein integrin alpha 3 (MENKT; also: biotin label at one end)”, the “Prostate Cancer Serum Test Result” value was “+”.
In the case of “nkNvt: Tested peptide of cell surface protein integrin beta I (NKNVT; also: biotin label at one end)”, the “Prostate Cancer Serum Test Result” value is reported as “+”.
“nnNNss: Tested peptide of cell surface protein CD9 (NNNNSS; also: biotin label at one end)” was tested, and the “Prostate Cancer Serum Test Result” value was “−”.
“pdNct: Tested peptide of cell surface protein erbB-4 (PDNCT; also: biotin label at one end)” was tested, and the “Prostate Cancer Serum Test Result” value was “−”.
With “pdNdt: Tested peptide of cell surface protein insulin-like gf receptor (PDNDT; also: biotin label at one end)” the “Prostate Cancer Serum Test Result” value was “−”.
With “pdNqt: Tested peptide of cell surface protein integrin beta 5 (PDNQT; also: biotin label at one end)” the “Prostate Cancer Serum Test Result” value was “−”.
In the case of “perNrt: Tested peptide of cell surface protein erbB-1 (PERNRT; also: biotin label at one end, end not given here)”, the “Prostate Cancer Serum Test Result” value is reported as “−”.
“pgNrt: Tested peptide of cell surface protein CD82 (PGNRT; also: biotin label at one end, end not given here)” was tested, and the “Prostate Cancer Serum Test Result” value was “−”.
In the case of “qdNkt: Tested peptide of cell surface protein integrin alpha (v) (QDNKT; also: biotin label at one end, end not given here)”, the “Prostate Cancer Serum Test Result” value is reported as “+”.
In the case of “qkNqt: Tested peptide of cell surface protein integrin alpha 9 (QKNQT; also: biotin label at one end, end not given here)”, the “Prostate Cancer Serum Test Result” value is reported as “−”.
For “qkNss: Tested peptide of cell surface protein integrin beta 6 (QKNSS; also: biotin label at one end, end not given here)”, the “Prostate Cancer Serum Test Result” value was “−”.
In the case of “qrNit: Tested peptide of cell surface protein integrin alpha 1 (QRNIT; not fully specified)”, the “Prostate Cancer Serum Test Result” value is reported as “−”.
For “raNhs: Tested peptide of cell surface protein integrin alpha 6 (RANHS; not fully specified)”, the “Prostate Cancer Serum Test Result” value was “−”.
With “rcNgs: Tested peptide of cell surface protein integrin beta 5 (RCNGS; not fully specified)” the “Prostate Cancer Serum Test Result” value was “−”.
In the case of “rmNit: Tested peptide of cell surface protein integrin alpha 3 (RMNIT; not fully specified)”, the “Prostate Cancer Serum Test Result” value is reported as “−”.
In the case of “saNrs: Tested peptide of cell surface protein CD66 (SANRS; not fully specified)”, the “Prostate Cancer Serum Test Result” value is reported as “+”.
For “sdNst: Tested peptide of cell surface protein CD53 (SDNST; not fully specified)”, the “Prostate Cancer Serum Test Result” value was “−”.
In the case of “seNas: Tested peptide of cell surface protein integrin alpha 1 (SENAS; not fully specified)”, the “Prostate Cancer Serum Test Result” value is reported as “−”.
With “seNdt: Tested peptide of cell surface protein protein-tyrosine phosphatase PCP-2 (SENDT; not fully specified)” the “Prostate Cancer Serum Test Result” value was “−”.
In the case of “skNfs: Tested peptide of cell surface protein integrin beta 3 (SKNFS; not fully specified)”, the “Prostate Cancer Serum Test Result” value is reported as “−”.
In the case of “skNqs: Tested peptide of cell surface protein CD66 (SKNQS; not fully specified)”, the “Prostate Cancer Serum Test Result” value is reported as “−”.
For “spNhs: Tested peptide of cell surface protein CD44 (SPNHS; not fully specified)”, the “Prostate Cancer Serum Test Result” value was “−”.
In the case of “teNqt: Tested peptide of cell surface protein integrin alpha (v) (TENQT; not fully specified)”, the “Prostate Cancer Serum Test Result” value is reported as “−”.
In the case of “tkNgt: Tested peptide of cell surface protein desmoglein 1 (TKNGT; not fully specified)”, the “Prostate Cancer Serum Test Result” value is reported as “−”.
With “trNdt: Tested peptide of cell surface protein CD66 (TRNDT; not fully specified)” the “Prostate Cancer Serum Test Result” value was “−”.
With “trNvs: Tested peptide of cell surface protein pdgfr beta (TRNVS; not fully specified)” the “Prostate Cancer Serum Test Result” value was “−”.
In the case of “vgNks: Tested peptide of cell surface protein hepatocyte gfr (VGNKS; not fully specified)”, the “Prostate Cancer Serum Test Result” value is reported as “−”.
With “vkNst: Tested peptide of cell surface protein E-Cadherin (VKNST; not fully specified)” the “Prostate Cancer Serum Test Result” value was “+”.
For “vtNrs: Tested peptide of cell surface protein integrin beta I (VTNRS; not fully specified)”, the “Prostate Cancer Serum Test Result” value was “−”.
